# Assay results: patent publication US20180106782A1, “HIGH THROUGHPUT CARDIOTOXICITY SCREENING PLATFORM” (The Board of Trustees of the Leland Stanford Junior …, priority 2016, published 2018)
# Tested on: μpatterned hiPSC-CMs
# Assay: traction force microscopy of moving microbeads under beating μpatterned hiPSC-CMs
# Assay type: cell-based, human
# Experimental: We cultured single hiPSC-CMs on Matrigel micropatterns, which were transferred from printed glass coverslips onto the surface of polyacrylamide hydrogels with a stiffness of 10 kPa as previously described. (Ribeiro 2015a) In summary, Matrigel was diluted 1:10 in L15 medium (Thermo Fisher) and added to the top of elastomeric microstamps composed of polydimethylsiloxane 182 (Dow Corning) to be incubated at 3-4° C. overnight. Microstamps consisted of 2000 μm^2 rectangular features with an aspect ratio of 7:1 (length:width). We gently aspirated Matrigel after the overnight incubation, washed the stamps twice in L15 medium, aspirated L15 medium from the surface and dried it with a low stream of N2 gas. We then used microstamps to micropattern the Matrigel rectangular features on clean glass coverslips by microcontact printing. Matrigel on micropatterns was transferred to the surface of the polyacrylamide substrates during the gelation process by placing the patterned coverslip in contact with the top of the acrylamide prepolymer solution right before gelation. The aqueous prepolymer solution to be gelled was composed of acrylamide (Sigma-Aldrich)(10% w/v), bisacrylamide (Sigma-Aldrich) (0.1% w/v), ammonium persulfate (Sigma-Aldrich) (0.01% w/v) and N,N,N′,N′-tetramethylethylenediamine (Sigma-Aldrich) (0.1% v/v), HEPES (Thermo Fisher) (35 mM) and Milli-Q water. To calculate the forces generated by cells attached to polyacrylamide surfaces with traction force microscopy, green fluorescent microbeads with a diameter of 0.2 μm (Thermo Fisher) were also dispersed in the gel solution to yield a final concentration of 6.25×10^9 microbeads/mL. We gelled acrylamide on top of another coverslip functionalized with 3-(trimethoxysilyl)propyl methacrylate (Sigma-Aldrich), which binds polyacrylamide. […] Once polymerized, polyacrylamide substrates were incubated in PBS for at least 2 hours and the top coverslips were carefully removed with a razor blade. We seeded hiPSC-CMs on these polyacrylamide hydrogel substrates after washing them 3 times with PBS.
# We passaged hiPSC-CMs onto micropatterned polyacrylamide devices at a density of 1000 cells/cm^2. For this purpose, cultures of thawed cells were washed twice with PBS and incubated in 1 mL of Accutase for 8-10 min. After observing cell detachment from the bottom of the wells, we quenched Accutase with Dulbecco's modified Eagle's medium (Thermo Fisher) containing 12% fetal bovine serum and counted the concentration of cells in medium with a hemocytometer. Then, we centrifuged cells at 83 rcf for 3 min at room temperature and aspirated the supernatant to resuspend the pelleted cells in the required volume of medium (RPMI-1640 cell-culture medium with 5 μM ROCK inhibitor) for adding 150 μL of cell solution to the surface of hydrogel devices at a concentration of 1000 cells/cm^2. After 1.5 h of incubation, we added 2.5 mL of medium to the well containing hydrogel devices and added fresh medium without ROCK inhibitor after 2 days. Single beating cells on Matrigel patterns were analyzed between 5-10 days after seeding.
# We imaged the movement of beating hiPSC-CMs and the displacement of fluorescent microbeads embedded in polyacrylamide substrates with a Zeiss Axiovert 200M inverted microscope equipped with a Zeiss Axiocam MRm CCD camera. This microscope also contained an environmental chamber (PeCon) to set temperature at 37° C. Unless otherwise noted, we acquired microscopy videos while electrically pacing hiPSC-CMs with 10 ms-wide bipolar pulses of electric-field stimulation at 10-15 V with a frequency of 1 Hz (Myopacer, lonOptix).
# To induce contractile changes in hiPSC-CMs, we added drugs known to affect CM contractile machinery to the culture medium. We analyzed the mechanical output of cells after adding drugs. […]
# [1] = extracellular caffeine slowly increased up to 10 μM (FIG. 3C)
smiles,measurement,setting,value
Cn1c(=O)c2c(ncn2C)n(C)c1=O [caffeine],kinetics of relaxation right after adding caffeine,[1],sudden decrease
same,mechanical output right after adding caffeine,[1],sudden increase
same,t̂ (time between peak velocity of contraction and peak velocity of relaxation),"low doses of caffeine slowly diffused through the culture media, single cell (FIG. 3B)",increase
same,magnitude of the contractions that followed and kinetics of relaxation,with increasing caffeine extracellular concentration (FIG. 3),considerably decreased
